From patent publication US20060106042A1, “Substituted heterocyclpyrmidines” (priority 2002, published 2006)
Like-named read-outs stand apart in the source and are kept apart here.

What was measured:
[1] = logP determination by reversed-phase HPLC (EEC Directive 79/831 Annex V.A8); format: physicochemical; settings: reversed-phase HPLC column (C18); acidic range: 0.1% aqueous phosphoric acid/acetonitrile gradient, C18, 43° C.; read-out: logP a)
From the text: (a) Mobile phases for the determination of the acidic range: 0.1% aqueous phosphoric acid, acetonitrile; linear gradient from 10% acetonitrile to 90% acteonitrile—the corresponding measurement results in Table 1 are marked^a). […]

Meloidogyne incognita = assay: Meloidogyne test (gall formation on lettuce roots); format: in vivo; settings: Meloidogyne incognita, 336 h, after 14 d, nematicidal action by gall formation on lettuce, read-out: Kill rate in % after 14 d
Method: (§1) • Solvent: 7 parts by weight of dimethylformamide • Emulsifier: 2 parts by weight of alkylaryl polyglycol ether
To produce a suitable preparation of active compound, 1 part by weight of active compound is mixed with the stated amounts of solvent and emulsifier, and the concentrate is diluted with water to the desired concentration.
Vessels are filled with sand, solution of active compound, Meloidogyne incognita egg/larvae suspension and lettuce seeds. The lettuce seeds germinate and the plants develop. On the roots, galls are formed.
After the desired period of time, the nematicidal action is determined in % using the formation of galls. 100% means that no galls were found; 0% means that the number of galls on the treated plants corresponds to that of the untreated control.

[2] = test system: larvae of the mustard beetle (Phaedon cochleariae); assay: Phaedon larvae test (cabbage leaves, dip); format: in vivo; settings: 168 h, after 7 d, cabbage leaves dipped, read-out: Kill rate in % after 7 d
Method: as §1
After the desired period of time, the kill in % is determined. 100% means that all beetle larvae have been killed; 0% means that none of the beetle larvae have been killed.

[3] = test system: greenhouse red spider mite (Tetranychus urticae); assay: Tetranychus test (OP-resistant/dip treatment); format: in vivo; settings: 168 h, read-out: Kill rate in % after 7 d
Method: Tetranychus Test (OP-Resistant/Dip Treatment)
as §1
After the desired period of time, the effect in % is determined. 100% means that all spider mites have been killed; 0% means that none of the spider mites have been killed.

[4] = test system: peach aphid (Myzus persicae); assay: Myzus test (cabbage leaves, dip); format: in vivo; settings: 500 ppm, cabbage leaves dipped
Method: as §1
To produce a suitable preparation of active compound, 1 part by weight of active compound is mixed with the stated amounts of solvent and emulsifier, and the concentrate is diluted with emulsifier-containing water to the desired concentration.
Cabbage leaves (Brassica oleracea) which are heavily infested by the peach aphid (Myzus persicae) are treated by being dipped into the preparation of active compound of the desired concentration.
After the desired period of time, the kill in % is determined. 100% means that all aphids have been killed; 0% means that none of the aphids have been killed.

[5] = test system: caterpillars of the armyworm (Spodoptera frugiperda); assay: Spodoptera frugiperda test (cabbage leaves, dip); format: in vivo; settings: 168 h, after 7 d, cabbage leaves dipped, read-out: Kill rate in % after 7 d
Method: Spodoptera frugiperda Test
as §1
After the desired period of time, the kill in % is determined. 100% means that all caterpillars have been killed; 0% means that none of the caterpillars have been killed.

[6] = 100 ppm, after 7 d, OP-resistant, bean plants dipped

| SMILES | chromatographic logP [1] | pest or weed control at 20 ppm (Meloidogyne incognita) [%] | also measured |
| --- | --- | --- | --- |
| FC(F)=CCCSc1nccc(-c2ccc(Cl)s2)n1 [Example 3] | 4.73 | 100 | pest or weed control at 500 ppm [2]: 100% |
| [O-][S+](CCC=C(F)F)c1nccc(-c2ccccn2)n1 (stereo not shown) [Example 5] | 1.47 | – | pest or weed control at 100 ppm [3]: 100% |
| FC(F)=CCCSc1nccc(-c2cccnc2)n1 [Example 9] | 1.96 | 100 | pest or weed control at 100 ppm [3, 6]: 100% |
| FC(F)=CCCSc1nccc(-c2ccncc2)n1 [Example 10] | 1.72 | – | pest or weed control at 500 ppm [2]: 100% |
| FC(F)=CCCSc1nccc(-c2nccs2)n1 [Example 11] | 3.33 | – | Kill rate in % after 6 d [4]: 95%; pest or weed control at 500 ppm [2]: 95% |
| FC(F)=C(F)CCSc1nccc(-c2nccs2)n1 [Example 12] | 1.56 | 100 | – |
| FC(F)=CCCSc1nccc(-c2cnccn2)n1 [Example 14] | 2.91 | – | pest or weed control at 100 ppm [3, 6]: 100%; Kill rate in % after 6 d [4]: 95% |
| FC(F)=C(F)CCSc1nccc(-c2cnccn2)n1 [Example 16] | 2.92 | 100 | – |
| FC(F)=CCCSc1nccc(-c2cccc(Br)n2)n1 [Example 17] | 4.51 | – | pest or weed control at 100 ppm [3, 6]: 100% |
| CCOc1cccc(-c2ccnc(SCCC=C(F)F)n2)n1 [Example 20] | 4.91 | – | pest or weed control at 500 ppm [5]: 100% |
| FC(F)=C(F)CCSc1nccc(-c2ccc[nH]2)n1 [Example 21] | – | 100 | – |
| FC(F)=C(F)CCSc1nccc(-n2cccn2)n1 [Example 22] | 3.27 | 100 | – |
| FC(F)=CCCSc1nccc(-n2cc(Cl)cn2)n1 [Example 24] | 4.13 | – | pest or weed control at 500 ppm [2]: 100% |
| FC(F)=CCCSc1nccc(-c2cccs2)n1 [Example 27] | 3.83 | – | pest or weed control at 100 ppm [3, 6]: 100% |
| FC(F)=C(F)CCSc1nccc(-c2cccs2)n1 [Example 28] | 3.84 | 100 | – |
| FC(F)=CCCSc1nccc(-c2ccc3ccccc3n2)n1 [Example 31] | 4.81 | – | pest or weed control at 500 ppm [5]: 100% |
| FC(F)=CCCSc1nccc(-c2cc(-c3ccccc3)ccn2)n1 [Example 32] | 4.77 | – | pest or weed control at 100 ppm [3, 6]: 100% |
| CC(C)(C)c1ccnc(-c2ccnc(SCCC=C(F)F)n2)c1 [Example 33] | 4.8 | – | pest or weed control at 100 ppm [3, 6]: 100% |
| FC(F)=C(F)CCSc1nccc(-c2ccc3ccccc3n2)n1 [Example 34] | 4.81 | 100 | – |
| Cc1cc(=O)[nH]n1-c1ccnc(SCCC=C(F)F)n1 [Example 39] | 2.55 | 100 | – |
| FC(F)=CCCSc1nccc(-n2nnc3ccccc32)n1 [Example 40] | 3.97 | – | pest or weed control at 500 ppm [5]: 100% |
| FC(F)=C(F)CCSc1nccc(-n2cccc2)n1 [Example 41] | – | 100 | – |
| FC(F)=CCCSc1nccc(-n2nc3ccccc3n2)n1 [Example 42] | 3.98 | – | pest or weed control at 100 ppm [3, 6]: 99% |
| FC(F)=CCCSc1nccc(-c2ncccc2Cl)n1 [Example 43] | 3.32 | – | pest or weed control at 100 ppm [3, 6]: 99% |
| FC(F)=CCCSc1nccc(-c2nc3ccc(Cl)cc3s2)n1 [Example 45] | 5.57 | 100 | – |
| FC(F)=CCCSc1nccc(-c2cscn2)n1 [Example 48] | 3.14 | – | pest or weed control at 500 ppm [5]: 100% |
| COc1ccc(-c2ccnc(SCCC(F)=C(F)F)n2)nc1 [Example 49] | 2.17 | 100 | – |
| COc1ccc(-c2ccnc(SCCC=C(F)F)n2)nc1 [Example 50] | 2.12 | – | pest or weed control at 500 ppm [5]: 100% |
